# Results taken from BindingDB's records for doi:10.1016/0960-894X(96)00018-2 (1996).
# Target: T1, Prostatic acid phosphatase (Homo sapiens, UniProt P15309)
# T1 sequence (P15309 whole entry): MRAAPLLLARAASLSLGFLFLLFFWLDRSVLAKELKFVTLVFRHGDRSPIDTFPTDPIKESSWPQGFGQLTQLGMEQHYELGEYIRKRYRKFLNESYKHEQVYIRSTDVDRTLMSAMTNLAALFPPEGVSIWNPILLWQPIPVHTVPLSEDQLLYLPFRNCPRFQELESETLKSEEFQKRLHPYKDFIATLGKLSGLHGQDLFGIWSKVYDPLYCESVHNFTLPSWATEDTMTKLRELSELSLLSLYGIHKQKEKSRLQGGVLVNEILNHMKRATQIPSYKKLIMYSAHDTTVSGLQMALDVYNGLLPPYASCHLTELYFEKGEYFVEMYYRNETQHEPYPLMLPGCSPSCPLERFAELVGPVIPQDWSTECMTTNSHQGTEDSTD
# Assay: ChEBML_158626
# Experimental: Inhibition of human prostatic acid phosphatase was determined as inhibition of the hydrolysis of tyrosine phosphate
row,SMILES,IC50
1,OP(O)(O)=c1c2ccccc2sc2ccccc12 [(9H-Thioxanthen-9-yl)-phosphonic acid],> 100 µM
2,"OP(O)(O)=c1c2ccccc2ccc2ccccc12 [(5H-Dibenzo[a,d]cyclohepten-5-yl)-phosphonic acid]",> 100 µM
